Target: T1, MAPKAP-K2 (Homo sapiens, UniProt P49137)
Experiment: MAPKAP-K2 enzyme activity inhibition assay, Method B (33P-ATP, MultiScreen-PH plate)
Format: biochemical
Conditions: recombinant human MAPKAP-K2, 0.5% DMSO, 30 min room temperature, read-out: Inhibitory activity (MAPKAP-K2 IC50 class)
Description: (§1) The assay of inhibitory activity was performed according to Method A described below for Compound No. 1, 2, 3, 4, 20, 21, 22, 23, 24, 25, 26, 79, 80 and 81, and Method B described below for the other compounds.
A compound was dissolved in […] to make its concentration to 20 mmol/L, and the resultant solution was stored at −20° C. The stock solution was sequentially diluted with DMSO to prepare a solution having a 200-fold concentration of the required range. Further the solution was diluted with water to 1:20 to prepare a solution having a 10-fold concentration of the required range, and an aliquot of 5 μL of each solution was used for every reaction with 50 μL. During the continuous dilution of all compounds, the final DMSO concentration was maintained at 0.5%. Compounds were routinely tested at a final concentration ranging from 100 μmol/L to 0.03 μmol/L, but were sometimes tested at a lower concentration depending upon their activity.
The reaction was initiated by adding 25 μL of a peptide substrate solution [60 μmol/L substrate peptide, 20 μmol/L ATP, 50 mmol/L Tris buffer (pH 7.5), 0.1 mmol/L EGTA, 0.1% β-mercaptoetanol, 20 mmol/L magnesium acetate, and 0.1 μCi [γ-33P]ATP (specific radio activity: approximately 110 TBq/mmol)] to 5 μL of a 5% DMSO solution of the test compound and subsequently adding 20 μL of a MAPKAP-K2 enzyme solution [10 mU recombinant human MAPKAP-K2, 50 mmol/L Tris buffer (pH 7.5), 0.1 mmol/L EGTA, 0.1% β-mercaptoethanol, 0.1% BSA]. After performing the reaction for 30 min at room temperature, an equivalent volume of 200 mmol/L phosphoric acid solution was added to terminate the reaction. Subsequently, 90 μL of the reaction product was adsorbed on a MultiScreen-PH Plate (Millipore) and then rinsed with 100 mmol/L phosphoric acid solution. After drying the plate, 30 μL of MicroScint-O (Packard BioScience) was added, and further the count per minute was measured by a scintillation counter to determine the inhibitory activity. The substrate peptide was Lys-Lys-Leu-Asn-Arg-Tlr-Leu-Ser-Val-Ala.
• % Control=(X−B)/(Tot−B)×100 • % Inhibition=100—% Control • X=count per minute of a test compound well • B=count per minute of a well without containing enzyme • Tot=count per minute of a well with DMSO solvent only, without containing the test compound (MAPKAP-K2 inhibitory activity) • IC50 value=the compound concentration at 50% inhibition

T1 sequence (P49137 whole entry): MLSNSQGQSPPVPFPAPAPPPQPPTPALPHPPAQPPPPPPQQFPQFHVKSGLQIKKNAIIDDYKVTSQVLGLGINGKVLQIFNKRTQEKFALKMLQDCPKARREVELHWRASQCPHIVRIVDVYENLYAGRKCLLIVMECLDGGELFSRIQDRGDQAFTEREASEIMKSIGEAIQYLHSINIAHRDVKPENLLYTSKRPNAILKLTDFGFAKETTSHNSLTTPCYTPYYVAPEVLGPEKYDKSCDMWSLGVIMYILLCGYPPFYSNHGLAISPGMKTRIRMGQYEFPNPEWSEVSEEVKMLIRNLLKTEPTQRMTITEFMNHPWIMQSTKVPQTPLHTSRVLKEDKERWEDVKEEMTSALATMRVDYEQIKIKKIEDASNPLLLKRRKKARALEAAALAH

CCOc1ccc(Nc2c(C)c(OC3CC(C)(C)CC(C)(CN)C3)nc3ccnn23)cc1 (centres unmarked) [compound 44] and CCOc1ccc(Nc2c(C)c(OCC(C)=O)nc3ccnn23)cc1 [compound 259] fall in the same range of IC50: 20 to 100 µM for the first, 20 to 100 µM for the second.

CC(=O)c1ccc(Nc2c(C)c(OC3CCCNC3)nc3ccnn23)cc1 (centres unmarked) [compound 62] and COC(=O)c1ccc(Nc2c(C)c(OC3CCCNC3)nc3ccnn23)cc1 (centres unmarked) [compound 47] fall in the same range of IC50: 2 to 20 µM for the first, 2 to 20 µM for the second.

First: Cc1c(OC2CCCNC2)nc2ccnn2c1NCc1ccccc1 (centres unmarked) [compound 269]
Second: Cc1c(OC2CCCNC2)nc2ccnn2c1Nc1cccc2cnccc12 (centres unmarked) [compound 63]
The IC50 of the first is lower: 2 to 20 µM for the first, 20 to 100 µM for the second.

CCOc1ccc(Nc2c(C)c(OCC3CCCNC3)nc3ccnn23)cc1 (centres unmarked) [compound 244] and COc1ccc(Nc2ccc(Nc3c(C)c(OC4CCCNC4)nc4ccnn34)cc2)cc1 (centres unmarked) [compound 59] cannot be ordered by IC50: 2 to 20 µM for the first, at most 2 µM for the second.

Cc1c(OC2CCNCC2)nc2ccnn2c1Nc1ccc(OCc2ccccc2)cc1 [compound 240] and Cc1c(O[C@H]2CC[C@H](N)CC2)nc2ccnn2c1Nc1ccc(-c2cccc(N)c2)cc1 [Compound No. 93, N-4′-[5-(trans-4-aminocyclohexyloxy)-6-methylpyrazolo[1,5-a]pyrimidin-7-yl] biphenyl-3,4′-diamine] cannot be ordered by IC50: 2 to 20 µM for the first, at most 2 µM for the second.

Cc1c(O[C@H]2CC[C@@H](N)CC2)nc2ccnn2c1Nc1cc(F)c(C#N)cc1F [compound 68] and Cc1c(O[C@H]2CC[C@@H](N)CC2)nc2ccnn2c1Nc1ccc(C#N)c(C(F)(F)F)c1 [compound 72] cannot be ordered by IC50: 2 to 20 µM for the first, at most 2 µM for the second.

Cc1c(O[C@H]2CC[C@@H](N)CC2)nc2ccnn2c1Nc1ccc(SC(F)(F)F)cc1 [compound 73] and CC(=O)c1ccc(-c2ccc(Nc3c(C)c(O[C@H]4CC[C@@H](N)CC4)nc4ccnn34)cc2)s1 [compound 92] cannot be ordered by IC50: at most 2 µM for the first, at most 2 µM for the second.

First: CCOc1ccc(Nc2c(C)c(O[C@@H]3CN(C(=O)OCc4ccccc4)CC[C@H]3CC(=O)NCc3ccccc3)nc3ccnn23)cc1 [compound 87]
Second: COc1ccc(Cl)cc1Nc1c(C)c(O[C@H]2CC[C@@H](N)CC2)nc2ccnn12 [compound 64]
The IC50 of the first is higher: 20 to 100 µM for the first, 2 to 20 µM for the second. The second is the more potent here.

Cc1c(OC2CCCNC2)nc2ccnn2c1Nc1ccc2nc(SC(C)C)sc2c1 (centres unmarked) [compound 74] and CSc1nc2ccc(Nc3c(C)c(OC4CCCNC4)nc4ccnn34)cc2s1 (centres unmarked) [compound 45] cannot be ordered by IC50: 2 to 20 µM for the first, at most 2 µM for the second.

In the case of CCc1c(O[C@H]2CC[C@@H](N)CC2)nc2ccnn2c1Nc1ccc(F)c(Cl)c1 [compound 10], the IC50 is reported as 2 to 20 µM.

Target: T1, MAPKAP-K2
Experiment: MAPKAP-K2 enzyme activity inhibition assay, Method A (33P-ATP, P81 filter plate)
Format: biochemical
Conditions: 10 μmol/L ATP, 30 μmol/L peptide KKLNRTLSVA, 3% DMSO, 30 min room temperature, read-out: Inhibitory activity (MAPKAP-K2 IC50 class)
Description: as §1
A compound was dissolved in DMSO to make its concentration to 10 mmol/L, and further a part of the resulting solution was taken out and stored at −20° C. The stock solution was diluted with DMSO to prepare a stock solution having a 30-fold concentration of the required range. Subsequently the resultant stock solution was diluted to 1:3 to prepare a stock solution having a 10-fold concentration of the required range, and an aliquot of 5 μL of each solution was used for every reaction with 50 μL. During the continuous dilution of all compounds, the final DMSO concentration was maintained at 3% and the solubility of compounds was maximized. Compounds were routinely tested at a final concentration ranging from 300 μmol/L to 0.001 μmol/L, but were sometimes tested at a lower concentration depending upon their activity. (MAPKAP-K2 Enzyme Activity Assay)
The kinase reaction was carried out using a 96-well round-bottomed polypropylene microplate. MAPKAP-Kinase 2 was diluted to 0.5 mU/μL with diluent buffer (50 mmol/L Tris/HCl (pH7.5), 0.1 mmol/L EGTA, 0.1% (v/v) β-mercaptoethanol, and 1 mg/mL BSA). To each well was added 5 μL of a compound or 30% DMSO and subsequently 25 μL of substrate cocktail (final concentration: 10 μmol/L ATP, 30 μmol/L peptide (KKLNRTLSVA), 50 mmol/L 33P-γ-ATP/Tris solution of (pH 7.5, 0.5 μCi), 0.1 mmol/L EGTA, 10 mmol/L magnesium acetate and 0.1% β-mercaptoethanol). To each well was added 20 μL of an enzyme solution or 20 μL of a diluent buffer without contabing enzyme to initiate the reaction, After shaking the plate for 10 sec, it was fibber allowed to stand at room temperature for 30 min. The reaction was terminated with 50 μL of a 150 mmol/L phosphoric acid solution. Then, 90 μL of a reaction mixture solution was transferred to a 96-well P81 filter plate (Whatmann), and incubation was performed at room temperature for 5 min. Subsequently, the filter plate was washed 4 times with 200 μL of a 75 mmol/L phosphoric acid solution per well through a plate suction manifold (Millipore), followed by further drying in an oven for 2 to 3 hrs. Next, after adding Packard Microscint “0” (30 μL) to each well and shaking the plate for 30 min, scintillation measurement was performed using a Packard TopCount scintillation counter. […]

CCOc1ccc(Nc2c(C)c(SCCN)nc3ccnn23)cc1 [compound 81] and CCOc1ccc(Nc2c(C)c(SC3CCCNC3)nc3ccnn23)cc1 (centres unmarked) [compound 80] fall in the same range of IC50: 2 to 20 µM for the first, 2 to 20 µM for the second.

C=CCC1CC(N)CCC1Oc1nc2ccnn2c(Nc2ccc(OCC)cc2)c1C (centres unmarked) [compound 25] and C=CCC1CC(NC)CCC1Oc1nc2ccnn2c(Nc2ccc(OCC)cc2)c1C (centres unmarked) [compound 26] fall in the same range of IC50: 2 to 20 µM for the first, 2 to 20 µM for the second.
